Measurements reported in US20210047304A1, “Bromodomain Inhibitors” (AbbVie Inc., priority 2016, published 2021).
Where two headings read alike, the source gives them in different places.

Biological target: BRD4 (BDI_K57-E168) (Homo sapiens, UniProt O60885)
Test: TR-FRET bromodomain binding assay, BRD4 BDI

Molecule	Ki	Ki (mean Ki, 12 nM His tagged BRD4 (BDI_K57-E168), 100 nM Alexa647 probe, Ki calculated from IC50, probe Kd and probe concentration)
Cc1cc(F)cc(C)c1Oc1ccc(C(C)(C)O)cc1-c1cn(C)c(=O)cc1O[C@H]1CC[C@H](C(N)=O)CC1 [Example 102, trans-4-({5-[2-(4-fluoro-2,6-dimethylphenoxy)-5-(2-hydroxypropan-2-yl)phenyl]-1-methyl-2-oxo-1,2-dihydropyridin-4-yl}oxy)cyclohexane-1-carboxamide]	4 µM	–
Cc1cc(F)cc(C)c1Oc1ccc(C(C)(C)O)cc1-c1cn(C)c(=O)cc1O[C@H]1CC[C@H](CNC(=O)OC(C)(C)C)CC1 [Example 15, tert-butyl [trans-4-({5-[2-(4-fluoro-2,6-dimethylphenoxy)-5-(2-hydroxypropan-2-yl)phenyl]-1-methyl-2-oxo-1,2-dihydropyridin-4-yl}oxy)cyclohexyl]methylcarbamate]	6.02 µM	–
CC(=O)N([C@H](C)c1ccc(Oc2c(C)cccc2C)c(-c2cn(C)c(=O)cc2O[C@H]2CC[C@H](NC(=O)C3(C)CC3)CC2)c1)[C@@H](C)c1ccccc1 [Example 116, N-{trans-4-[(5-{5-[(1R)-1-{acetyl[(1S)-1-phenylethyl]amino}ethyl]-2-(2,6-dimethylphenoxy)phenyl}-1-methyl-2-oxo-1,2-dihydropyridin-4-yl)oxy]cyclohexyl}-1-methylcyclopropane-1-carboxamide]	> 13 µM	–
Cc1cc(F)cc(C)c1Oc1ccc(C(C)(C)O)cc1-c1cn(C)c(=O)cc1O[C@H]1CC[C@H](N2NC(=O)CC2=O)CC1 [Example 121, 1-[trans-4-({5-[2-(4-fluoro-2,6-dimethylphenoxy)-5-(2-hydroxypropan-2-yl)phenyl]-1-methyl-2-oxo-1,2-dihydropyridin-4-yl}oxy)cyclohexyl]pyrazolidine-3,5-dione]	> 13 µM	–
Cc1cc(F)cc(C)c1Oc1ccc(C(C)(C)O)cc1-c1cn(C)c(=O)cc1O[C@H]1CC[C@H](NC(=O)C2(C#N)CCC2)CC1 [Example 88, 1-cyano-N-[trans-4-({5-[2-(4-fluoro-2,6-dimethylphenoxy)-5-(2-hydroxypropan-2-yl)phenyl]-1-methyl-2-oxo-1,2-dihydropyridin-4-yl}oxy)cyclohexyl]cyclobutane-1-carboxamide]	3.98 µM	–
Cc1cc(F)cc(C)c1Oc1ccc(C(C)(C)O)cc1-c1cn(C)c(=O)cc1O[C@H]1CC[C@H](N2CC(C)(C)C2=O)CC1 [Example 30, 4-{[trans-4-(3,3-dimethyl-2-oxoazetidin-1-yl)cyclohexyl]oxy}-5-[2-(4-fluoro-2,6-dimethylphenoxy)-5-(2-hydroxypropan-2-yl)phenyl]-1-methylpyridin-2(1H)-one]	3.3 µM	–
Cc1cc(F)cc(C)c1Oc1ccc(C(C)(C)O)cc1-c1cn(C)c(=O)cc1O[C@H]1CC[C@H](NC(=O)C23CCC(NC(=O)OC(C)(C)C)(C2)C3)CC1 (relative stereo) [Example 103, tert-butyl (4-{[trans-4-({5-[2-(4-fluoro-2,6-dimethylphenoxy)-5-(2-hydroxypropan-2-yl)phenyl]-1-methyl-2-oxo-1,2-dihydropyridin-4-yl}oxy)cyclohexyl]carbamoyl}bicyclo[2.1.1]hexan-1-yl)carbamate]	8.01 µM	–
Cc1cc(F)cc(C)c1Oc1ccc(C(C)(C)O)cc1-c1cn(C)c(=O)cc1O[C@H]1CC[C@H](C(=O)N2CCCC2)CC1 [Example 62, 5-[2-(4-fluoro-2,6-dimethylphenoxy)-5-(2-hydroxypropan-2-yl)phenyl]-1-methyl-4-{[trans-4-(pyrrolidine-1-carbonyl)cyclohexyl]oxy}pyridin-2(1H)-one]	8.37 µM	–
Cc1cc(F)cc(C)c1Oc1ccc(C(C)(C)O)cc1-c1cn(C)c(=O)cc1O[C@H]1C[C@@H](CNC(=O)OC(C)(C)C)C1 [Example 8, tert-butyl {[cis-3-({5-[2-(4-fluoro-2,6-dimethylphenoxy)-5-(2-hydroxypropan-2-yl)phenyl]-1-methyl-2-oxo-1,2-dihydropyridin-4-yl}oxy)cyclobutyl]methyl}carbamate]	2.7 µM	–
Cc1cc(F)cc(C)c1Oc1ncc(C(C)(C)O)cc1-c1cn(C)c(=O)cc1O[C@H]1CC[C@H](N2CCCC2=O)CC1 [Example 60, 2′-(4-fluoro-2,6-dimethylphenoxy)-5′-(2-hydroxypropan-2-yl)-1-methyl-4-{[trans-4-(2-oxopyrrolidin-1-yl)cyclohexyl]oxy}[3,3′-bipyridin]-6(1H)-one]	4.66 µM	–
methyl [trans-4-({5-[2-(4-fluoro-2,6-dimethylphenoxy)-5-(2-hydroxypropan-2-yl)phenyl]-1-methyl-2-oxo-1,2-dihydropyridin-4-yl}oxy)cyclohexyl]methylcarbamate [Example 21]	–	3.02 µM
Cc1cc(F)cc(C)c1Oc1ccc(C(C)(C)O)cc1-c1cn(C)c(=O)cc1O[C@H]1CC[C@@H](C(=O)N2CCCC2)CC1 [Example 77, 5-[2-(4-fluoro-2,6-dimethylphenoxy)-5-(2-hydroxypropan-2-yl)phenyl]-1-methyl-4-{[cis-4-(pyrrolidine-1-carbonyl)cyclohexyl]oxy}pyridin-2(1H)-one]	> 13 µM	–
COCC(C)(C)C(=O)N[C@H]1CC[C@H](Oc2cc(=O)n(C)cc2-c2cc(C(C)(C)O)ccc2Oc2c(C)cc(F)cc2C)CC1 [Example 71, N-[trans-4-({5-[2-(4-fluoro-2,6-dimethylphenoxy)-5-(2-hydroxypropan-2-yl)phenyl]-1-methyl-2-oxo-1,2-dihydropyridin-4-yl}oxy)cyclohexyl]-3-methoxy-2,2-dimethylpropanamide]	5.08 µM	–
Cc1cccc(C)c1Oc1ccc(C(C)(C)O)cc1-c1cn(C)c(=O)cc1NC1CCN(S(C)(=O)=O)CC1 [Example 2, 5-[2-(2,6-dimethylphenoxy)-5-(2-hydroxypropan-2-yl)phenyl]-4-{[1-(methanesulfonyl)piperidin-4-yl]amino}-1-methylpyridin-2(1H)-one]	5.89 µM	–
CCc1c(-c2cc(C(C)(C)O)ccc2Oc2c(C)cc(F)cc2C)c(O[C@H]2CC[C@H](N3CCCC3=O)CC2)cc(=O)n1C [Example 33, 6-ethyl-5-[2-(4-fluoro-2,6-dimethylphenoxy)-5-(2-hydroxypropan-2-yl)phenyl]-1-methyl-4-{[trans-4-(2-oxopyrrolidin-1-yl)cyclohexyl]oxy}pyridin-2(1H)-one]	> 13 µM	–
Cc1cc(F)cc(C)c1Oc1ccc(C(C)(C)O)cc1-c1cn(C)c(=O)cc1O[C@H]1CC[C@H](NC(=O)C2CC2)CC1 [Example 50, N-[trans-4-({5-[2-(4-fluoro-2,6-dimethylphenoxy)-5-(2-hydroxypropan-2-yl)phenyl]-1-methyl-2-oxo-1,2-dihydropyridin-4-yl}oxy)cyclohexyl]cyclopropanecarboxamide]	2.83 µM	–
Cc1cc(F)cc(C)c1Oc1ccc(C(C)(C)O)cc1-c1cn(C)c(=O)cc1O[C@H]1CC[C@H](N2CCCC2=O)CC1 [Example 24, 5-[2-(4-fluoro-2,6-dimethylphenoxy)-5-(2-hydroxypropan-2-yl)phenyl]-1-methyl-4-{[trans-4-(2-oxopyrrolidin-1-yl)cyclohexyl]oxy}pyridin-2(1H)-one]	2.86 µM	–

More lines, main results first:

Ki	Molecule	Ki (mean Ki, 12 nM His tagged BRD4 (BDI_K57-E168), 100 nM Alexa647 probe, Ki calculated from IC50, probe Kd and probe concentration)
2.33 µM	CC(=O)NC1CC2(C1)CC(Nc1cc(=O)n(C)cc1-c1cc(C(C)(C)O)ccc1Oc1c(C)cccc1C)C2 (stereo not shown) [Example 10, N-[6-({5-[2-(2,6-dimethylphenoxy)-5-(2-hydroxypropan-2-yl)phenyl]-1-methyl-2-oxo-1,2-dihydropyridin-4-yl}amino)spiro[3.3]heptan-2-yl]acetamide]	–
1.19 µM	Cc1cc(F)cc(C)c1Oc1ccc(C(C)(C)O)cc1-c1cn(C)c(=O)cc1O[C@H]1CC[C@H](NC(=O)C2(C(N)=O)CC2)CC1 [Example 111, N-[trans-4-({5-[2-(4-fluoro-2,6-dimethylphenoxy)-5-(2-hydroxypropan-2-yl)phenyl]-1-methyl-2-oxo-1,2-dihydropyridin-4-yl}oxy)cyclohexyl]cyclopropane-1,1-dicarboxamide]	–
1.86 µM	COCCCN(C(=O)C1(C)CC1)[C@H]1CC[C@H](Oc2cc(=O)n(C)cc2-c2cc(C(C)(C)O)ccc2Oc2c(C)cc(F)cc2C)CC1 [Example 65, N-[trans-4-({5-[2-(4-fluoro-2,6-dimethylphenoxy)-5-(2-hydroxypropan-2-yl)phenyl]-1-methyl-2-oxo-1,2-dihydropyridin-4-yl}oxy)cyclohexyl]-N-(3-methoxypropyl)-1-methylcyclopropane-1-carboxamide]	–
1.79 µM	Cc1cc(F)cc(C)c1Oc1ccc(C(C)(C)O)cc1-c1cn(C)c(=O)cc1O[C@H]1CC[C@H](N2CCC(C)(C)C2=O)CC1 [Example 48, 4-{[trans-4-(3,3-dimethyl-2-oxopyrrolidin-1-yl)cyclohexyl]oxy}-5-[2-(4-fluoro-2,6-dimethylphenoxy)-5-(2-hydroxypropan-2-yl)phenyl]-1-methylpyridin-2(1H)-one]	–
0.772 µM	Cc1cc(F)cc(C)c1Oc1ccc(C(C)(C)O)cc1-c1cn(C)c(=O)cc1O[C@H]1CC[C@H](N2C(=O)C3CC3C2=O)CC1 (relative stereo) [Example 129, 3-[trans-4-({5-[2-(4-fluoro-2,6-dimethylphenoxy)-5-(2-hydroxypropan-2-yl)phenyl]-1-methyl-2-oxo-1,2-dihydropyridin-4-yl}oxy)cyclohexyl]-3-azabicyclo[3.1.0]hexane-2,4-dione]	–
1.52 µM	C=CC(=O)N[C@H]1CC[C@H](Oc2cc(=O)n(C)cc2-c2cc(C(C)(C)O)ccc2Oc2c(C)cc(F)cc2C)CC1 [Example 28, N-[trans-4-({5-[2-(4-fluoro-2,6-dimethylphenoxy)-5-(2-hydroxypropan-2-yl)phenyl]-1-methyl-2-oxo-1,2-dihydropyridin-4-yl}oxy)cyclohexyl]prop-2-enamide]	–
0.719 µM	CC(=O)N[C@H]1C[C@H](Oc2cc(=O)n(C)cc2-c2cc(C(C)(C)O)ccc2Oc2c(C)cc(F)cc2C)C1 [Example 100, N-[trans-3-({5-[2-(4-fluoro-2,6-dimethylphenoxy)-5-(2-hydroxypropan-2-yl)phenyl]-1-methyl-2-oxo-1,2-dihydropyridin-4-yl}oxy)cyclobutyl]acetamide]	–
1.55 µM	CC(=O)N1CCC(Nc2cc(=O)n(C)cc2-c2cc(C(C)(C)O)ccc2Oc2c(C)cccc2C)C1 (stereo not shown) [Example 14, 4-[(1-acetylpyrrolidin-3-yl)amino]-5-[2-(2,6-dimethylphenoxy)-5-(2-hydroxypropan-2-yl)phenyl]-1-methylpyridin-2(1H)-one]	–
